Assay results taken from patent US20040053950A1, “Antimalarial activities and therapeutic properties of febrifugine analogues” (priority 2002, published 2004).
pIC50: −log10 of the molar value. In brackets after ≈: the same amount, converted by molar mass. Read-outs that look alike come from different tables or passages of the source.

What was measured:
[1] = tested on: P. falciparum chloroquine-resistant W2-strain; assay: In vitro drug susceptibility assay ([3H]-hypoxanthine incorporation), W2 strain; format: cell-based; conditions: Plasmodium falciparum
Description: (§1) Potential resistance to halofuginone derivatives of P. falciparum isolates were tested. Isolates of P. falciparum stored in liquid nitrogen are thawed and cultivated in RPMI 1640 media with 6% human erythrocytes supplemented with 10% of human serum. The parasite cultures are maintained in an atmosphere of 5% CO2, 5% O2 and 90% N2 at 37° C. for the assay. The semi-automated micro-dilution technique of Desjardins is used to assess the sensitivity of the parasites to febrifugine and halofuginone derivatives. The incorporation of [3H]-hypoxanthine into the parasites is measured as a function of compound concentration to determine EC50 values.

Macrophage cells (J774) = assay: In vitro drug toxicity assay, macrophage cells; format: cell-based; conditions: Mus musculus
Neuronal cells (NG108) = assay: In vitro drug toxicity assay, neuronal cells; format: cell-based; conditions: NG-108
[2] = tested on: P. falciparum chloroquine-sensitive D6-strain; assay: In vitro drug susceptibility assay ([3H]-hypoxanthine incorporation), D6 strain; format: cell-based; conditions: Plasmodium falciparum
Description: as §1

PfMRK = target: T1, PfMRK (Plasmodium falciparum, UniProt P90584); assay: Kinase assay, recombinant plasmodial cyclin-dependent kinase; format: biochemical
T1 sequence (P90584 1-324): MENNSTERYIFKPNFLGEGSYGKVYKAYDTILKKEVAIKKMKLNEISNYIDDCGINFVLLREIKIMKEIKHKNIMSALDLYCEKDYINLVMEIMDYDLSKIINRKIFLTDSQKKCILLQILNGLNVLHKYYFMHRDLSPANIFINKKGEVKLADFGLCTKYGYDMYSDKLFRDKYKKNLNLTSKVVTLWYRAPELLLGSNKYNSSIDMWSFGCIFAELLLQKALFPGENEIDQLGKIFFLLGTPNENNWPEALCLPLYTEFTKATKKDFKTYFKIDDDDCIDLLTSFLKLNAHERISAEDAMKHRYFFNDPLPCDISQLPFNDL
Description: Halofuginone is a known to be a specific collagen gene transcription inhibitor. However, inhibition to other target enzymes by febrifugine, halofuginone and halofuginone derivatives in malarial parasites remain unknown. Quinazoline analogues (the family to which these compounds belong) are known to target dihydrofolate reductase, mammalian EGFR kinase, the stress-activated protein kinase and cyclin dependent kinase. A series of enzymatic assays are used to detect whether the derivatives have inhibition against these enzymes. DHFR assay is conducted using a well-characterized spectrophotometric method. Kinase assays are conducted using radioisotope-labeling technique. The responses of the recombinant kinases to the derivatives are measured in a scintillation b-counter and illustrated using SDS-page gel and PhosphoImager. These tests provide information on the compounds' abilities to interfere with the functions of these enzymes and alter the parasite physiological pathways on a molecular basis.

[3] = Toxic effects in mice (observation and necropsy analysis); format: in vivo; conditions: for diarrhea / gastrointestinal toxic effects: mice
Plasmodium berghei = assay: Modified Thompson test in P. berghei-infected mice; format: in vivo; conditions: mice; for parasitemia of the infected mice: 10 mg/kg once/day for three days
Description: An active animal use protocol mouse models are used to test the above compounds to determine antimalarial activity by using modified Thompson Test. In this test, IRC mice are inoculated intraperitoneally with P. berghei-infected erythrocytes from donor mice that are anesthetized and exsanguinated via cardiac puncture to collect infected blood. The pooled blood is then diluted with normal mouse serum to a concentration of 1×10^6 P. berghei erythrocytes per inoculum (0.1 ml). The groups of testing and control mice are inoculated with the infected blood on day 0 and then treated with various dosages of halofuginone or the derivatives in aqueous-based vehicles on day 3 through the day required. The drug is administered orally (PO), subcutaneously (SC), intramuscularly (IM), and/or intraperitoneally (IP) up to three times a day, based on the requirements. Blood films and body weights are taken on the third and sixth days post-infection, then at weekly intervals through day 60. Films are Giemsa-stained, examined using light microscopy for the determination of parasitemia. All mice with negative smears at 60 days are considered cured. The data from the in vivo testing verifies the antimalarial efficacy of febrifugine, halofuginone and the halofuginone derivatives in mice and provides new properties of halofuginone and halofuginone derivatives against malarial parasites in vivo.
The modified Thompson test was conducted in eleven groups of mice with eight mice per group. The tested mice were inoculated with P. Berghei on day zero and treated with febrifugines on days three with one oral or subcutaneous treatment per day for three days. […] The parasitemia of the infected mice was reduced to less than 3% with oral administration of 10 mg/kg febrifugines one/day for three days, while mice with the subcutaneous treatment had 30% of parasitemia at the same does as shown in FIGS. 3(a) through 3(d).
Eighty-eight ICR mice were inoculated with P. berghei, and separated into nine groups. Eight of the infected groups were treated with […] different doses of halofuginone twice a day for eight days. One group was treated with physiological saline as control. […] Two mice were cured at the doses of 0.25 and 0.5 mg/kg and survived 60 days after the treatment. […] The parasites were all cleared at the does of 1 mg/kg on day six.

[4] = Table 1, W2 strain, read-out: IC50 against P. falciparum W2 strain
[5] = Table 4, W2, read-out: IC50 P. falciparum (W2)
[6] = Table 1, D6 strain, read-out: IC50 against P. falciparum D6 strain
[7] = Table 4, D6, read-out: IC50 P. falciparum (D6)

Q: With `COC1CCCN[C@@H]1CC(=O)Cn1cnc2cc3c(cc2c1=O)OCO3` (stereo partly shown) [WR090212] as the molecule, how does the IC50 [1, 4] read?
A: Its IC50 is 0.0256 µg/mL (≈ 0.0713 µM).

Q: What about the IC50 [1, 5] of the same molecule?
A: The IC50 was 0.0234 µg/mL (≈ 0.0651 µM).

Q: And the IC50 (Macrophage cells (J774); Table 2, J774)?
A: Its IC50 is 3.54 µg/mL (≈ 9.85 µM).

Q: What about the IC50 (Macrophage cells (J774); Table 4, J774) of the same molecule?
A: The IC50 was 2.97 µg/mL (≈ 8.27 µM).

Q: What about the IC50 (Neuronal cells (NG108); Table 2, NG108) of the same molecule?
A: The IC50 was 26 µg/mL (≈ 72.3 µM).

Q: And the IC50 (Neuronal cells (NG108); Table 4, NG108)?
A: Its IC50 is 24.8 µg/mL (≈ 69.1 µM).

Q: And the IC50 [2, 6]?
A: Its IC50 is 0.0181 µg/mL (≈ 0.0504 µM).

Q: And the IC50 [2, 7]?
A: The IC50 was 0.0189 µg/mL (≈ 0.0527 µM).

Q: For `O=C(C[C@H]1NCCCC1O)Cn1cnc2cc3c(cc2c1=O)OCO3` (stereo partly shown) [WR092103], which IC50 [1, 5] is on record?
A: Its IC50 is 0.00293 µg/mL (≈ 0.00848 µM).

Q: And the IC50 (Macrophage cells (J774); Table 4, J774)?
A: The IC50 was 3.61 µg/mL (≈ 10.4 µM).

Q: What about the IC50 (Neuronal cells (NG108); Table 4, NG108) of the same molecule?
A: The IC50 was 6.86 µg/mL (≈ 19.9 µM).

Q: And the IC50 [2, 7]?
A: Its IC50 is 0.00238 µg/mL (≈ 0.00689 µM).

Q: For `O=C(C[C@H]1NCCCC1O)Cn1cnc2cccc(Cl)c2c1=O` (stereo partly shown) [WR139672], which IC50 [1, 4] is on record?
A: The IC50 was 0.00163 µg/mL (≈ 0.00484 µM).

Q: What about the IC50 [1, 5] of the same molecule?
A: Its IC50 is 0.00146 µg/mL (≈ 0.00435 µM).

Q: And the IC50 (Macrophage cells (J774); Table 2, J774)?
A: Its IC50 is 0.069 µg/mL (≈ 0.205 µM).

Q: And the IC50 (Macrophage cells (J774); Table 4, J774)?
A: Its IC50 is 0.392 µg/mL (≈ 1.17 µM).

Q: And the IC50 (Neuronal cells (NG108); Table 2, NG108)?
A: The IC50 was 1.31 µg/mL (≈ 3.91 µM).

Q: And the IC50 (Neuronal cells (NG108); Table 4, NG108)?
A: The IC50 was 1.16 µg/mL (≈ 3.45 µM).

Q: And the IC50 [2, 6]?
A: The IC50 was 0.00123 µg/mL (≈ 0.00366 µM).

Q: And the IC50 [2, 7]?
A: The IC50 was 0.00175 µg/mL (≈ 0.00521 µM).

Q: Which IC50 [1, 4] does the source give for `COC1CCCN[C@@H]1CC(=O)Cn1cnc2ccc3c(c2c1=O)OCO3` (stereo partly shown) [WR140085] here?
A: The IC50 was 0.0141 µg/mL (≈ 0.0391 µM).

Q: What about the IC50 [1, 5] of the same molecule?
A: The IC50 was 0.0151 µg/mL (≈ 0.0419 µM).

Q: What about the IC50 (Macrophage cells (J774); Table 2, J774) of the same molecule?
A: The IC50 was 3.29 µg/mL (≈ 9.14 µM).

Q: What about the IC50 (Macrophage cells (J774); Table 4, J774) of the same molecule?
A: The IC50 was 0.425 µg/mL (≈ 1.18 µM).

Q: What about the IC50 (Neuronal cells (NG108); Table 2, NG108) of the same molecule?
A: The IC50 was 10.8 µg/mL (≈ 30.1 µM).

Q: What about the IC50 (Neuronal cells (NG108); Table 4, NG108) of the same molecule?
A: The IC50 was 15.5 µg/mL (≈ 43.1 µM).

Q: What about the IC50 [2, 6] of the same molecule?
A: Its IC50 is 0.0105 µg/mL (≈ 0.0291 µM).

Q: And the IC50 [2, 7]?
A: Its IC50 is 0.0129 µg/mL (≈ 0.036 µM).

Q: With `CCOC1CCCN[C@@H]1CC(=O)Cn1cnc2cc(Br)c(Cl)cc2c1=O` (stereo partly shown) [WR221232] as the molecule, how does the pIC50 (PfMRK) read?
A: Its pIC50 is about 3.95.

Q: What about the IC50 [1, 4] of the same molecule?
A: The IC50 was 0.0172 µg/mL (≈ 0.0388 µM).

Q: What about the IC50 [1, 5] of the same molecule?
A: Its IC50 is 0.0115 µg/mL (≈ 0.0261 µM).

Q: What about the IC50 (Macrophage cells (J774); Table 2, J774) of the same molecule?
A: Its IC50 is 0.287 µg/mL (≈ 0.647 µM).

Q: What about the IC50 (Macrophage cells (J774); Table 4, J774) of the same molecule?
A: The IC50 was 0.613 µg/mL (≈ 1.38 µM).

Q: What about the IC50 (Neuronal cells (NG108); Table 2, NG108) of the same molecule?
A: Its IC50 is 5.99 µg/mL (≈ 13.5 µM).

Q: What about the IC50 (Neuronal cells (NG108); Table 4, NG108) of the same molecule?
A: Its IC50 is 8 µg/mL (≈ 18.1 µM).

Q: What about the IC50 [2, 6] of the same molecule?
A: The IC50 was 0.0111 µg/mL (≈ 0.0251 µM).

Q: What about the IC50 [2, 7] of the same molecule?
A: Its IC50 is 0.00945 µg/mL (≈ 0.0213 µM).

Q: Which IC50 [1, 4] does the source give for `O=C(C[C@H]1NCCCC1O)Cn1cnc2c(Cl)c(Cl)c(Cl)cc2c1=O` (stereo partly shown) [WR222048] here?
A: Its IC50 is 0.00129 µg/mL (≈ 0.00319 µM).

Q: And the IC50 [1, 5]?
A: The IC50 was 0.00098 µg/mL (≈ 0.00242 µM).

Q: And the IC50 (Macrophage cells (J774); Table 2, J774)?
A: The IC50 was 0.11 µg/mL (≈ 0.272 µM).

Q: And the IC50 (Macrophage cells (J774); Table 4, J774)?
A: Its IC50 is 0.499 µg/mL (≈ 1.23 µM).

Q: And the IC50 (Neuronal cells (NG108); Table 2, NG108)?
A: Its IC50 is 1.1 µg/mL (≈ 2.71 µM).

Q: And the IC50 (Neuronal cells (NG108); Table 4, NG108)?
A: Its IC50 is 0.879 µg/mL (≈ 2.17 µM).

Q: And the IC50 [2, 6]?
A: Its IC50 is 0.000962 µg/mL (≈ 0.00238 µM).

Q: And the IC50 [2, 7]?
A: Its IC50 is 0.00082 µg/mL (≈ 0.00203 µM).

Q: What does the source list for “(2′S,3′R)-3-[3-(3-hydroxy-2-piperidyl)acetonyl]-4(3H)quinazolinone [Febrifugine]”?
A: toxic effects (nausea and vomiting) in mice ([3]; antimalarial dosages): do not appear to have such toxic effects; diarrhea ([3]; effective treatment doses): did not induce diarrhea; gastrointestinal toxic effects ([3]; oral treatment, toxic doses): severe gastrointestinal lesions and hemorrhage; gastrointestinal toxic effects ([3]; subcutaneous treatment, toxic doses): did not induce GI tract injury; vomiting ([3]; tested mice): No vomiting has been observed; diarrhea ([3]; toxic doses): caused diarrhea; necropsy findings ([3]; toxic doses, mouse killed by drug): pale liver and intestine lesions and hemorrhage; efficacy of oral versus subcutaneous treatment (Plasmodium berghei; one treatment per day for three days): more efficacious; parasitemia of the infected mice (Plasmodium berghei; oral administration): less than 3%; parasitemia of the infected mice (Plasmodium berghei; subcutaneous treatment): 30%
